Common to all, as to assay: NCI tumour cell line growth inhibition, 48 h
Test [1] concerns ACHN renal.
Test [2] concerns CCRF-CEM leukemia.
The test system of test [3] is DU-145 prostate.
Test [4] relates to LOX IMVI melanoma.
Test [5] relates to SF-539 CNS.
For test [6], the system named is SK-MEL-2 melanoma.
Test [7] has as its system SK-MEL-28 melanoma.
Test [8] relates to SNB-75 CNS.
In test [9] the test system is SW-620 colon.
Test [10] has as its system K-562 leukemia.

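96-well plates; 48 h exposure; 5 concentrations. Endpoints by linear interpolation between flanking doses. Not reached: highest tested concentration assigned. TGI: total growth inhibition.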

This is an account of results in PubChem BioAssay (NCI).

On to `O=c1oc2ccccc2c(O)c1C(c1ccc(OCc2ccccc2)cc1)c1c(O)c2ccccc2oc1=O`, for which the TGI in test [1] is 47.9 µM; in [2], more than 100 µM; in [3], more than 100 µM; in [4], more than 100 µM; in test [5] it was more than 100 µM; in test [6] it was more than 100 µM. Besides, the TGI in [7] was more than 100 µM; in [8], 65.6 µM; in [9], more than 100 µM.

`N#CC1=C(O)NC(O)=C(C#N)C1c1c(Cl)cccc1Cl`: the TGI is more than 100 µM in test [1]; more than 100 µM in [2]; more than 100 µM in [10]; 32 µM in [4]; 41.3 µM in test [5]; 52.3 µM in [6]. In addition, the TGI was more than 100 µM in [7], 48.4 µM in test [8] and more than 100 µM in [9].

`CCn1c(CCCc2nc3c([nH]2)c(=O)n(C)c(=O)n3C)nc2c1c(=O)n(C)c(=O)n2C`: the TGI in [1] is more than 100 µM; in test [2] it was more than 100 µM; in [3] it was more than 100 µM; in test [10], more than 100 µM; in test [4], more than 100 µM; in test [5] it was 30.5 µM. The TGI in [7] and in test [9] was more than 100 µM throughout.

For the molecule `CCN(CC)/N=C\c1c2ccccc2cc2ccccc12`, the TGI in test [1] was more than 100 µM; in [2], 94.4 µM; in test [3], more than 100 µM; in test [10] it was more than 100 µM; in [5], more than 100 µM; in [6], 61.9 µM. Besides, the TGI is more than 100 µM in test [7], 68.7 µM in test [8] and more than 100 µM in test [9].

In the case of `COc1ccc(NC(=O)CSC(=O)c2ccccc2)c(SCCSSCCSc2cc(OC)ccc2NC(=O)CSC(=O)c2ccccc2)c1`, the TGI in test [1], in test [2], in test [3], in [4], in test [5] and in [6] was more than 100 µM in each case. Besides, the TGI in test [8] and in test [9] was more than 100 µM each time.

For the molecule `COc1cc(C2c3cccc4cccc(c34)C3CCC(=O)N32)cc(OC)c1O` (stereo not drawn), the TGI in [1], in test [2], in [3], in test [10], in test [5] and in [6] was more than 50 µM throughout. The TGI in test [7], in [8] and in test [9] was more than 50 µM in each case.

Take `COC(=O)N[C@@H]1C[C@H]2CC[C@]1(O[Si](C(C)C)(C(C)C)C(C)C)C(=O)C2`: the TGI in test [1] is 45.7 µM; in [2], more than 100 µM; in test [3] it was more than 100 µM; in test [10], more than 100 µM; in test [6], 35.3 µM; in test [7], 36.8 µM. The TGI is 41.9 µM in test [8] and more than 100 µM in [9].

`N#Cc1sc2c(c1OC(=O)c1ccco1)c(=O)n(-c1ccccc1)c(=S)n2-c1ccccc1`: the TGI in [2] is more than 10 µM; in test [3] it was more than 100 µM; in [10] it was 96 µM; in [4], 45.6 µM; in test [5] it was 52.7 µM; in [6], 84.2 µM. Besides, the TGI in test [7] is more than 100 µM; in test [8] it was 84.5 µM; in test [9], more than 100 µM.

On to `COC(=O)C1=C(C)NC(C)=C(C(=O)OC)C1c1cccc(/[N+]([O-])=C/c2ccccc2)c1`, for which the TGI was 31.6 µM in test [1]; 44.8 µM in test [2]; more than 100 µM in [3]; more than 100 µM in [4]; more than 100 µM in [5]; more than 100 µM in test [6]. Also, the TGI in test [7] was 31.6 µM; in test [8], more than 100 µM; in test [9], 38 µM.

For `COC(=O)/C=C1\C(CO[Si](C)(C)C(C)(C)C)OC(n2cc(C)c(=O)n(C)c2=O)C1O[Si](C)(C)C(C)(C)C` (stereo not drawn), the TGI in test [1], in test [2], in [3], in test [10], in test [4] and in [6] was more than 100 µM throughout. Moreover, the TGI in test [7], in [8] and in test [9] was more than 100 µM throughout.

Turning to `COc1cc2nc(-c3cccs3)nc(N3CCN(c4ccccc4)CC3)c2cc1OC`, the TGI in test [1], in test [3], in test [10], in [4], in [5] and in test [6] was more than 100 µM each time. Moreover, the TGI in test [7], in test [8] and in test [9] was more than 100 µM in each case.

In the case of `CCOC(=O)Cc1[nH]c(C(=O)c2ccccc2)cc1C(=O)c1ccccc1`, the TGI in [1] is more than 10 µM; in [2], more than 10 µM; in test [3], more than 10 µM; in test [10] it was more than 10 µM; in [4] it was more than 100 µM; in [6] it was more than 100 µM. For the same molecule, the results for the TGI in test [7], in test [8] and in test [9] were more than 10 µM, more than 100 µM and more than 100 µM, respectively.

Consider `CCCN=C1NC(C)=CSC(Nc2ccccc2)=C1C#N`, for which the TGI in [1], in test [3], in test [10], in test [5], in test [6] and in [7] was more than 100 µM throughout. In addition, in [9], the TGI was more than 100 µM.

Regarding `Oc1ccc(-c2nc3cc(C(F)(F)F)ccc3s2)cc1`, the TGI is 27.6 µM in test [1]; 27.8 µM in test [2]; 30 µM in test [3]; more than 100 µM in test [10]; 26.6 µM in [4]; 34.2 µM in [5]. Moreover, the results for the TGI in test [6] and in [9] were 30.1 µM and 40.2 µM, respectively.

Take `CC(C)(C)OC(=O)N1C(=O)C2CCCC21` (stereo not drawn): the TGI in test [1], in test [2], in [3], in [4], in test [6] and in [7] was more than 100 µM in each case. The TGI in test [8] and in test [9] was more than 100 µM each time.
